Laboratory results taken from patent US8987449B2, “Medicine for treating ischemic brain injury and its sequelae, and preparation method thereof” (Haimin Lei, priority 2011, dated 2015).

What was measured:
ICR mice = experiment: Buccal respiration duration of mice after head cutting (4° C. icy water swimming model); format: in vivo, mouse; details: control 32.45 ± 5.49
Protocol: ICR mice, half female and half male, weighing 19-21 g, certificate No.: SCXK (Jing) 2006-0009, provided by BeiJing Vital River Laboratories.
LQC-T4, tetramethylpyrazine (TMP), vanillic acid, Nimodipine (ShanDong XinHua Pharmaceutical CO., Ltd, batch No.: 0908164)
160 male ICR mice were divided into 8 groups randomly by weight, each of which contained 20 mice, wherein 0.5% CMC-NA (0.2 ml·10 g^−1) was administrated intragastrically to the blank control group; 6.7 mg·kg^−1 Nimodipine (0.2 ml·10 g^−1) was administrated intragastrically to the positive control group; 100 mg·kg^−1 TMP (0.2 ml·10 g^−1) was administrated intragastrically to the TMP group, three different dosage of 200 mg·kg^−1, 100 mg·kg^−1, 50 mg·kg^−1 were administrated intragastrically to the LQC-T4 (0.2 ml·10 g^−1) group relatively, and 125 mg·kg^−1 TMP+80 mg·kg^−1 vanillitc acid (0.2 ml·10 g^−1) was administrated intragastrically respectively. The medicines were continuously administrated once a day for 10 days.
The literature was referred to: [LiuZhenquan, SunHui, Xuqiuping, etc., Experimental Study on the Brain-Protective Effect of the Effective Fraction of Naoxin Formula in the Mouse Model of with Load-Bearing Swimming in Cold Water, Journal of Beijing University of Traditional Chinese Medicine [J], 2004, 27(4): 54-56] and the method recorded therein was improved. The head was rapidly cut with a scissor at post mortem when the mouse swam in 4° C. icy water for 3 min after the final administration. After head being cut, the buccal respiration duration of mouse was recorded.
The SAS 8.2 statistical software was used to carry out the one-way ANOVA variance analysis and the difference among the groups were compared by t-test.

Ca^2+—Mg^2+ ATPase = experiment: Ca2+-Mg2+ ATPase of MCAO rats (brain homogenate, kit); format: in vivo, rat; details: ischemia side brain homogenate, model group 5.32 ± 2.61
Protocol: 140 healthy SD male rats, weighing 280-300 g, provided by BeiJing Vital River Laboratories, certificate No.: SCXK (Jing) 2002-2003.
1.3 Experimental reagents: 0.9% physiological saline, Ca^2+—Mg^2+ enzyme kit
10% chloral hydrate 0.35 g/kg was injected into the abdominal cavity of a rat to anesthetize thereof. The rat was fixed as supine position. The skin was disinfected thereof by 75% medical alcohol. It was cut right in the middle of the neck. The right common carotid artery, internal carotid artery and external carotid artery were separated and the common carotid artery and external carotid artery were ligated. The internal carotid artery was clamped with a bulldog clamp. A cut was made at the crotch of the external carotid artery and the internal carotid artery followed by releasing the bulldog clamp. The nylon wire (diameter 0.25 mm, marked at a distance of 18 mm from the head end) was inserted into the cut and the insertion was stopped when some resistance was felt. The insert depth was a little longer than 18 mm to achieve the cerebral ischemia caused by middle cerebral artery occlusion. The internal carotid artery was ligated and the nylon wire was fixed. The muscle and skin were sutured layer by layer. In sham operation group, the right common carotid artery, the external carotid artery and the internal carotid artery were only exposed and separated. The rats were conventionally raised in different cages regularly. 0.5 ml penicillin was continuously injected into every rat for three days after the surgery.
The rat condition was evaluated after 6 h after the surgery when the rats were conscious according to the Zea Longa 5 grades evaluating method, wherein no apparent neurological symptom was evaluated as 0 point; not being able to completely stretch the left front claw was evaluated as 1 point; whirling leftward was evaluated as 2 point; leaning leftward when walking was evaluated as 3 point; having an epileptic seizure, losing consciousness and not being able to walk independently was evaluated as 4 point. The rats getting 1-3 point were selected for the subsequent experiment.
The rats were divided into 7 groups in the experiment, that is, sham operation group, model group, Nimodipine group, LQC-T4 large dosage group, LQC-T4 small dosage group, TMP group, and TMP+Vanillic acid group. The model rats getting 1 point were distributed randomly into the model group and other administration group, while the rats getting 2 point and 3 point were distributed randomly into above 6 groups according the above method and sham operation group was not involved in the above grouping. […]

## COc1cc(C(=O)OCc2nc(C)c(C)nc2C)ccc1OCc1nc(C)c(C)nc1C [LQC-T4, (3,5,6-trimethylpyrazine-2-yl)methyl 3-methoxy-4-((3,5,6-trimethylpyrazine-2-yl)methoxy) benzoate]
ICR mice; 50 mg/kg intragastrically once a day for 10 days
  respiration duration: 36.78 ± 5.40 s
ICR mice; 100 mg/kg intragastrically once a day for 10 days
  respiration duration: 36.07 ± 3.15 s
ICR mice; 200 mg/kg intragastrically once a day for 10 days
  respiration duration: 35.91 ± 4.25 s
Ca^2+—Mg^2+ ATPase; 60 mg/kg intragastrically once per day for 10 days
  Ca—Mg ATPase activity: 8.91 ± 4.05
Ca^2+—Mg^2+ ATPase; 120 mg/kg intragastrically once per day for 10 days
  Ca—Mg ATPase activity: 10.07 ± 5.15

## COCCOC(=O)C1=C(C)NC(C)=C(C(=O)OC(C)C)C1c1cccc([N+](=O)[O-])c1 (stereo not drawn) [Nimodipine, reference compound]
ICR mice; 6.7 mg/kg intragastrically once a day for 10 days
  respiration duration: 37.23 ± 5.37 s
Ca^2+—Mg^2+ ATPase; 30 mg/kg once per day for 10 days
  Ca—Mg ATPase activity: 13.25 ± 5.73

## Cc1nc(C)c(C)nc1C [TMP, tetramethylpyrazine, reference compound]
ICR mice; 125 mg/kg intragastrically once a day for 10 days
  respiration duration: 37.26 ± 5.99 s
Ca^2+—Mg^2+ ATPase; 37 mg/kg once per day for 10 days
  Ca—Mg ATPase activity: 9.13 ± 4.11
